Measured values from the supplement of paper PMC10307832.

Key:
Test in all cases: relative viability (nuclei count vs DMSO), 5 days (fraction); higher = more cells survive
EHT 1864 + Palbociclib = compound: C1COCCN1CC2=CC(=O)C(=CO2)OCCCCCSC3=C4C=CC(=CC4=NC=C3)C(F)(F)F [EHT 1864] + CC(=O)c1c(C)c2cnc(Nc3ccc(N4CCNCC4)cn3)nc2n(C2CCCC2)c1=O [Palbociclib] (partner 0.5 µM)
Procedure, shortened: (§1)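 Lung cancer cell lines in 1536-well plates were dosed by pin tool the day after seeding, either with one drug alone or with a fixed anchor-drug dose plus five library-drug doses (not always all listed) in √10 steps. After 5 days, cells were fixed and their nuclei stained in one step (final 0.05% Triton X-100, 1% formaldehyde, 1 ug/ml Hoechst), then counted on 4× images. Relative viability is the nuclei count in treated wells divided by that in vehicle wells. Values are medians of duplicate plates.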

EHT 1864 + Crizotinib = compound: C1COCCN1CC2=CC(=O)C(=CO2)OCCCCCSC3=C4C=CC(=CC4=NC=C3)C(F)(F)F [EHT 1864] + C[C@@H](Oc1cc(-c2cnn(C3CCNCC3)c2)cnc1N)c1c(Cl)ccc(F)c1Cl [Crizotinib] (partner 1 µM)
Procedure, shortened: as §1

EHT 1864 + Vorinostat = compound: C1COCCN1CC2=CC(=O)C(=CO2)OCCCCCSC3=C4C=CC(=CC4=NC=C3)C(F)(F)F [EHT 1864] + O=C(CCCCCCC(=O)Nc1ccccc1)NO [Vorinostat] (partner 1 µM)
Procedure, shortened: as §1

EHT 1864 + AZD7762 = compound: C1COCCN1CC2=CC(=O)C(=CO2)OCCCCCSC3=C4C=CC(=CC4=NC=C3)C(F)(F)F [EHT 1864] + NC(=O)Nc1cc(-c2cccc(F)c2)sc1C(=O)N[C@H]1CCCNC1 [AZD7762] (partner 0.2 µM)
Procedure, shortened: as §1

Row | Cell Line | relative viability (EHT 1864 + Palbociclib; first compound 0.04 µM) | relative viability (EHT 1864 + Palbociclib; first compound 0.1265 µM) | relative viability (EHT 1864 + Palbociclib; first compound 0.4 µM) | relative viability (EHT 1864 + Palbociclib; first compound 1.265 µM) | relative viability (EHT 1864 + Palbociclib; first compound 4 µM) | relative viability (EHT 1864 + Crizotinib; first compound 0.04 µM) | relative viability (EHT 1864 + Crizotinib; first compound 0.4 µM) | relative viability (EHT 1864 + Crizotinib; first compound 1.265 µM) | relative viability (EHT 1864 + Crizotinib; first compound 4 µM) | relative viability (EHT 1864 + Vorinostat; first compound 0.04 µM) | relative viability (EHT 1864 + Vorinostat; first compound 0.1265 µM) | relative viability (EHT 1864 + Vorinostat; first compound 0.4 µM) | relative viability (EHT 1864 + Vorinostat; first compound 1.265 µM) | relative viability (EHT 1864 + Vorinostat; first compound 4 µM) | relative viability (EHT 1864 + AZD7762; first compound 0.04 µM) | relative viability (EHT 1864 + AZD7762; first compound 0.1265 µM) | relative viability (EHT 1864 + AZD7762; first compound 0.4 µM) | relative viability (EHT 1864 + AZD7762; first compound 1.265 µM) | relative viability (EHT 1864 + AZD7762; first compound 4 µM) | relative viability (EHT 1864 + Crizotinib; first compound 0.1265 µM)
1 | HCC-366 | 0.42 | 0.319 | 0.348 | 0.327 | 0.361 | 0.434 | 0.423 | 0.554 | 0.487 | 0.336 | 0.0895 | 0.312 | 0.327 | 0.337 | 0.262 | 0.232 | 0.248 | 0.28 | 0.243 | –
2 | HCC-827 | 0.57 | 0.498 | 0.508 | 0.473 | 0.386 | 0.963 | 0.931 | 0.844 | 0.921 | 0.932 | 0.59 | 0.843 | 0.96 | 0.602 | 0.198 | 0.22 | 0.228 | 0.252 | 0.201 | 0.759
3 | IA-LM | – | – | – | – | – | 1.01 | 0.754 | – | 0.684 | 0.917 | – | 0.853 | 0.946 | 1.24 | – | – | – | – | – | –
4 | NCI-H520 | 0.227 | 0.212 | 0.258 | 0.225 | 0.231 | 0.657 | 0.642 | 0.733 | 0.804 | 0.734 | 0.628 | 0.696 | 0.758 | 0.715 | – | – | – | – | – | 0.599
5 | NCI-H522 | 1.11 | 1.02 | 0.948 | 1 | 1.05 | – | – | – | – | 0.76 | 0.738 | 0.901 | 0.893 | 1.03 | 0.844 | 0.774 | 0.802 | 0.973 | 1.07 | –
6 | NCI-H596 | – | – | – | – | – | 1.02 | 0.931 | 0.896 | 0.973 | 0.724 | 0.476 | 0.694 | 0.577 | 0.657 | 1.21 | 1.04 | 1.1 | 1.04 | 1.46 | 1.04
7 | NCI-H661 | 0.4 | 0.389 | 0.41 | 0.381 | 0.352 | 1.03 | 0.882 | 0.85 | 0.879 | 0.836 | 0.685 | 0.773 | 0.697 | 0.712 | – | – | – | – | – | 1.03
8 | NCI-H1299 | – | – | – | – | – | 0.928 | 0.95 | 0.925 | 0.901 | – | – | – | – | – | – | – | – | – | – | 0.975
9 | NCI-H1395 | 0.61 | 0.595 | 0.631 | 0.57 | 0.614 | – | – | – | – | 0.775 | 0.552 | 0.819 | 0.607 | 0.681 | 0.394 | 0.37 | 0.389 | 0.437 | 0.436 | –
10 | NCI-H1563 | – | – | – | – | – | 0.89 | 0.916 | 0.827 | 0.656 | – | – | – | – | – | – | – | – | – | – | 0.883
11 | NCI-H1648 | 0.261 | – | 0.269 | 0.258 | 0.278 | – | – | – | – | 0.562 | – | 0.436 | 0.411 | 0.644 | 0.72 | – | 0.609 | 0.662 | 0.866 | –
12 | NCI-H1650 | 0.375 | 0.31 | 0.273 | 0.378 | 0.277 | 0.857 | 0.947 | 0.911 | 1.15 | 0.529 | 0.54 | 0.592 | 0.623 | 0.521 | – | – | – | – | – | 0.653
13 | NCI-H1703 | – | – | – | – | – | 0.69 | 0.545 | 0.598 | 0.487 | – | – | – | – | – | 0.128 | – | 0.118 | 0.128 | 0.15 | 0.534
14 | NCI-H1792 | 0.618 | 0.694 | 0.683 | 0.626 | 0.742 | 0.982 | 0.972 | 0.895 | 1.04 | – | – | – | – | – | 0.746 | – | 0.733 | 0.592 | 0.738 | 0.852
15 | NCI-H1793 | 0.242 | 0.281 | 0.315 | 0.28 | 0.373 | – | – | – | – | 0.656 | 0.403 | 0.768 | 0.879 | 0.935 | 0.609 | 0.458 | 0.496 | 0.193 | 0.298 | –
16 | NCI-H2009 | 0.228 | 0.209 | 0.193 | 0.24 | 0.173 | 0.978 | 1.08 | 0.962 | 0.711 | 0.69 | 0.698 | 0.72 | 0.627 | 0.612 | – | – | – | – | – | 1.01
17 | NCI-H2023 | 0.33 | 0.318 | 0.354 | 0.382 | 0.364 | 0.675 | 0.632 | 0.666 | 0.617 | 0.692 | 0.381 | 0.591 | 0.699 | 0.784 | – | – | – | – | – | 0.714
18 | NCI-H2228 | 0.881 | 0.634 | 0.642 | – | 0.777 | 0.523 | 0.509 | 0.341 | 0.361 | 0.658 | 0.641 | 0.571 | – | 0.365 | – | – | – | – | – | 0.479
19 | NCI-H2342 | 0.487 | 0.485 | 0.505 | 0.554 | 0.551 | – | – | – | – | 0.688 | 0.725 | 0.703 | 0.803 | 0.787 | 0.426 | 0.438 | 0.472 | 0.51 | 0.492 | –
20 | SK-LU-1 | 0.474 | 0.323 | 0.395 | 0.37 | 0.352 | 0.982 | 0.927 | 0.911 | 0.737 | 0.81 | 0.726 | 0.725 | 0.707 | 0.679 | – | – | – | – | – | 0.865
21 | SK-MES-1 | 0.379 | 0.3 | 0.356 | 0.301 | 0.342 | 1 | 1.04 | 0.968 | 0.996 | 1.1 | 0.983 | 1.1 | 1.1 | 1.03 | – | – | – | – | – | 0.972
22 | SW 1573 | 0.299 | – | 0.481 | 0.416 | 0.317 | 0.827 | 0.803 | 0.813 | 0.856 | 0.922 | – | 0.674 | 1.07 | 0.671 | – | – | – | – | – | 0.74
23 | UMC-11 | 0.339 | 0.266 | 0.281 | 0.343 | 0.31 | 0.611 | 0.568 | 0.607 | 0.507 | 0.372 | 0.482 | 0.41 | 0.398 | 0.534 | – | – | – | – | – | 0.537
